The values that follow are results of earlier work, collected in patent publication US9744237B2, “Method and system for effecting changes in pigmented tissue” (priority 2009, dated 2017).

One data set relates to tyrosinase. Particulars: for RAb: relative activity of tyrosinase inhibitor, RAb and F not defined in the patent.
Another data set has as its system uveal melanocytes. Particulars: for growth and melanogenesis of cultured uveal melanocytes: cAMP-deleted medium.

For the molecule `O=C(/C=C/c1ccc(O)cc1O)c1ccc(O)cc1O` [2,4,2′,4′-Tetrahydroxychalcone], in the data set with tyrosinase, the “inhibition mechanism on tyrosinase” value is recorded as “Competitive” and the RAb was 2.5 F.

With `O=C(/C=C/c1c(O)cc(O)cc1O)c1ccc(O)cc1O` [2,4,6,2′,4′-Pentahydroxychalcone], in the data set with tyrosinase, the “inhibition mechanism on tyrosinase” value is on record as “Competitive” and the RAb is recorded as 12.0 F. As to `O=C(NCc1ccc(O)cc1O)c1cc(O)cc(O)c1` [3,5,2′,4′-Tetrahydfoxyl derivatives], the RAa in the data set with tyrosinase (N-Benzylbenzamides, RAa and F not defined in the patent) is 7.4 F.

As for `O=c1c(-c2ccc(O)cc2)coc2cc(O)c(O)cc12` [6-Hydroxydaidzein, 6,7,4′-trihydroxyisoflavone], in the data set on tyrosinase, the “inhibition mechanism on tyrosinase” value was “Competitive” and the RAb is recorded as 6.0 F.

Take `O=c1c(-c2ccc(O)cc2)coc2c(O)c(O)ccc12` [8-Hydroxydaidzein, 7,8,4′-trihydroxyisoflavone]: the “inhibition mechanism on tyrosinase” value in the data set with tyrosinase is given as “Suicide substrate”.

With `O=c1c(-c2ccc(O)cc2)coc2c(O)c(O)cc(O)c12` [8-Hydroxygenistein, 5,7,8,4′-tetrahydroxyisoflavone], in the data set with tyrosinase, the “inhibition mechanism on tyrosinase” value was “Suicide substrate” and the “tyrosinase inhibitory activity in words” value was “the most potent suicide substrate of mushroom tyrosinase until now”. As for `COc1cc(O)c2c(=O)cc(-c3ccc(O)cc3O)oc2c1` [Artocarpetin, 5,2′,4′-trihydroxy-7-methoxyflavone], the RAb in the data set on tyrosinase is reported as less than 0.1 F.

In the case of `CC1=C(O)C(=O)C(C)O1` (stereo not shown) [DMHF, 2,5-Dimethyl-4-hydroxy-3(2H)-furanone], the “melanogenesis / melanin content / pigmentation” value in the data set with B16 melanoma cells is recorded as “inhibits a-MSH induced melanogenesis”. For the molecule `CNC[C@H](O)c1ccc(O)c(O)c1` [Epinephrine], the “growth and melanogenesis of cultured uveal melanocytes” value in the data set with uveal melanocytes is “substantially stimulated growth and melanogenesis”. For the molecule `COCCNC(=O)COc1ccc(OCCNC[C@H](O)COc2ccccc2)cc1` [Example D7114], the “growth and melanogenesis of cultured uveal melanocytes” value in the data set on uveal melanocytes is given as “showed no effect”.

For the molecule `CC1(C)C=Cc2c(ccc3c2OC[C@@H](c2ccc(O)cc2O)C3)O1` [Glabridine], in the data set on tyrosinase, the “inhibition mechanism on tyrosinase” value was “Non-competitive” and the RAb is 15.2 F. As for `COc1c(CC=C(C)C)c(O)cc2c1C[C@H](c1ccc(O)cc1O)CO2` [GlyasperinC], in the data set with tyrosinase, the RAb is 27.7 F. With `Oc1ccc(-c2ccc3cc(O)ccc3c2)c(O)c1` [HNB, 4-(6-hydroxy-2-naphtyl)-1.3-bezendiol], the “tyrosinase inhibitory activity in words” value with tyrosinase was “the strongest tyrosinase inhibitor published until now”. For `COc1c(O)ccc(C2=Cc3ccc(O)cc3OC2)c1OC` [HagininA, 2′,3′-dimethoxy-7,4′-dihdroxyisoflav-3-ene], in the data set on tyrosinase, the “inhibition mechanism on tyrosinase” value was “Non-competitive” and the RAb was 10.1 F. In the case of `Cc1ccc(C2(C)CC(C)(C)c3ccc(C)cc3O2)c(O)c1` (stereo not shown) [Inulavosin], in the data set on B16 melanoma cells, the “effect on tyrosinase mRNA / transcription” value is listed as “without affecting either the enzymatic activities or the transcription of tyrosinase” and the “melanogenesis / melanin content / pigmentation” value was “reduced the melanin content”. In the case of `C=C(C)[C@H](CC=C(C)C)Cc1c(O)cc(OC)c(C(=O)/C=C/c2ccc(O)cc2O)c1O` [Kuraridin], the RAb with tyrosinase is listed as 34.1 F.

On to `Br.CCN1C[C@]2(OC(=O)c3ccccc3NC(C)=O)CC[C@H](OC)[C@@]34[C@@H]2C[C@@H]([C@@H]13)[C@@]1(O)C[C@H](OC)[C@H]2C[C@@H]4[C@]1(O)[C@H]2OC` [Lappaconitine hydrobromide], for which, in the data set with tyrosinase, the “tyrosinase inhibitory activity in words” value is “activity similar to that of kojic acid”. In the case of `C=CC(C)(C)c1cc(/C=C/C(=O)c2ccc(O)cc2)c(OC)cc1O` [LicochalconeA], in the data set with tyrosinase, the “inhibition mechanism on tyrosinase” value is reported as “Competitive” and the RAb is listed as 5.4 F.

Consider `COc1ccc(OC)c(C(O)C(C)N)c1` (stereo not shown) [Methoxamine], for which the “growth and melanogenesis of cultured uveal melanocytes” value with uveal melanocytes is “showed no effect”.

Consider `C[C@@H]1O[C@H](C[N+](C)(C)C)C[C@H]1O` [Muscarine], for which, in the data set with uveal melanocytes (complete medium), the “growth and melanogenesis of uveal melanocytes” value is “inhibited the growth and melanogenesis”.

Regarding `O=c1cc(-c2ccc(O)cc2O)oc2cc(O)cc(O)c12` [Norartocarpetin], in the data set with tyrosinase, the “inhibition mechanism on tyrosinase” value is listed as “Competitive” and the RAb was 10.4 F. Regarding `O=C1CC(c2ccc(O)cc2O)Oc2cc(O)cc(O)c21` (stereo not shown) [Streppogenin, 5,7,2′,4′-tetrahydroxy-flavavone], in the data set on tyrosinase, the “inhibition mechanism on tyrosinase” value was “Competitive” and the RAb is recorded as 13.6 F. In the case of `CC(C)=CCc1c(O)ccc(/C=C/C(=O)c2ccc(O)cc2O)c1O` [TMBC, 2,4,2′,4′-tetrahydroxy-3-(3-methy1-2-buteny1)-chalcone], in the data set with tyrosinase, the “inhibition mechanism on tyrosinase” value was “Competitive” and the RAb is listed as 26.1 F. Regarding `Clc1cccc(Cl)c1N=C1NCCN1` [clonidine], the “growth and melanogenesis of cultured uveal melanocytes” value with uveal melanocytes is reported as “showed no effect”. Regarding `OC[C@H]1NC[C@@H](O)[C@@H](O)[C@@H]1O` [deoxymannojirimycin], the “glycosylation, transportation of tyrosinase to the melanosome and melanin synthesis” value with HM3K0 melanoma cells is “showed inhibition of glycosylation, transportation of tyrosinase to the melanosome and melanin synthesis”. Consider `N[C@H]1C(O)O[C@H](CO)[C@@H](O)[C@@H]1O` (stereo partly shown) [glucosamine], for which the “melanogenesis / melanin content / pigmentation” value in the data set on B16 melanoma cells is reported as “decreased pigmentation”. For the molecule `CC(C)NCC(O)c1ccc(O)c(O)c1` (stereo not shown) [isoproterenol], the “growth and melanogenesis of cultured uveal melanocytes” value with uveal melanocytes is “substantially stimulated growth and melanogenesis”. Turning to `CC(C)NCC(O)c1cc(O)cc(O)c1` (stereo not shown) [metaproterenol], the “growth and melanogenesis of cultured uveal melanocytes” value in the data set on uveal melanocytes is “substantially stimulated growth and melanogenesis”. `OCc1ccc(O)cc1` [p-hydroxybenzyl alcohol]: the “inhibition mechanism on tyrosinase” value in the data set on tyrosinase is reported as “irreversibly inhibited the enzyme”. Regarding `CC(C)NC[C@H](O)COc1ccc(O)cc1` [prenalterol], the “growth and melanogenesis of cultured uveal melanocytes” value in the data set on uveal melanocytes is listed as “showed no effect”. On to `CC(C)(C)NCC(O)c1ccc(O)c(CO)c1` (stereo not shown) [salbutamol], for which, in the data set with uveal melanocytes, the “growth and melanogenesis of cultured uveal melanocytes” value is “substantially stimulated growth and melanogenesis”. As to “Hen egg white lysozyme (HEWL): Hen egg white lysozyme”, in the data set on tyrosinase, the “inhibition mechanism on tyrosinase” value is “reversibly and irreversibly mixed inhibition mechanism”.

As for Kuraridinol, in the data set on tyrosinase, the “inhibition mechanism on tyrosinase” value is “Non-competetive”.

tunicamycin: in the data set on B16 melanoma cells, the “melanogenesis / melanin content / pigmentation” value was “decreased pigmentation”.

B1: TGFbeta2: Transforming growth factor-beta2, growth inhibit factor of uveal melanocytes (protein, UniProt P61812 303-414, looked up)
Transforming growth factor …: ALDAAYCFRNVQDNCCLRPLYIDFKRDLGWKWIHEPKGYNANFCAGACPYLWSSDTQHSRVLSLYNTINPEASASPCCVSQDLEPLTILYYIGKTPKIEQLSNMIVKSCKCS
As to B1, the “amount of active TGFbeta2 in aqueous humor sufficient to inhibit the growth of uveal melanocytes” value in the data set with uveal melanocytes was 0.2-0.4 ng m1-1.
